One block for each molecule: values may come before it.
Assays:
BSA = BSA (Bos taurus, UniProt P02769); test: Protein binding with BSA determined by ICP-MS; type: in vitro ADME
human plasma = test: Protein binding with human plasma determined by ICP-MS; type: in vitro ADME
[1] = Relaxivity (r1, r2) measurement of Gd(III) complexes in water, BSA and human plasma; type: physicochemical; design: r1 Human Plasma (1.5 T): unit not given beside the values; conditions: 37° C.
Protocol: This is very important because the huge difference in the inner-sphere coordinated water exchange rate between the two isomers is a key factor for applications, for example, as MRI contrast agents. To show their potential value, the two diastereomers of [GdL2]^− ([GdL2A]^− and [GdL2B]^−) were separated and their relaxivities were measured. The relaxivities of [GdL1]^−, [GdL2]^−, [GdL2A]^−, [GdL2B]^− and [GdDOTA]^− in water at different magnetic strengths (1.5 T and 11.7 T) were compared, with or without the presence of BSA and human plasma (1.5 T) (Table 1). It is clearly seen that the complexes of [GdL1]^−, [GdL2A]^− and [GdL2B]^− have relaxivity properties similar to that of the [GdDOTA]^− complex.

[2] = Kinetic inertness: competitive titration with DTPA, UPLC-HRMS; type: physicochemical; conditions: 1000 eq. of DTPA, pH 5.0, 0.1 M ammonium acetate, shaken 7 days; for decomplexation in presence of competitive ligand DTPA: room temperature
Protocol: Experimental procedure: Stock solution of [GdL1]^− and [GdL2]^− were prepared in 0.1 M ammonium acetate, 0˜1000 equivalents of DTPA were added into the solutions, the final concentrations of the gadolinium complexes were 14.8 mM for [GdL1]^− and 21.6 mM for [GdL2]^− (6 mL). The mixtures were shaken at room temperature, and samples of 1 ml of solutions were taken out for UPLC-HRMS analysis on day 3 and day 7.
Results: Competitive bath titrations were performed with the Gd analogues, [GdL1]^− and [GdL2]^−, in the presence of 0-1000 equivalents of competitive ligand DTPA (pentetic acid or diethylenetriaminepentaacetic acid) in 0.1 M ammonium acetate solution. After being shaken for 7 days (1000 eq. of DTPA, pH 5.0), the mixtures were analyzed by UPLC-HRMS. […] This finding is of significant importance for future use of the complexes in biomedical applications.

[3] = ICP-MS, summary of Tables 2 and 3
[4] = Table 2, sample A, conc. before 0.32286251 mM
[5] = Table 2, sample B, conc. before 0.15917209 mM
[6] = Table 2, sample C, conc. before 0.02070731 mM
[7] = Table 3, sample A, conc. before 0.3714242 mM
[8] = Table 3, sample B, conc. before 0.1551093 mM
[9] = Table 3, sample C, conc. before 0.0251512 mM
[10] = Table 2, sample A, conc. before 0.3167862 mM
[11] = Table 2, sample B, conc. before 0.162104 mM
[12] = Table 2, sample C, conc. before 0.021152 mM
[13] = Table 3, sample A, conc. before 0.3699171 mM
[14] = Table 3, sample B, conc. before 0.134016 mM
[15] = Table 3, sample C, conc. before 0.0189002 mM

BSA, sequence (P02769 25-607): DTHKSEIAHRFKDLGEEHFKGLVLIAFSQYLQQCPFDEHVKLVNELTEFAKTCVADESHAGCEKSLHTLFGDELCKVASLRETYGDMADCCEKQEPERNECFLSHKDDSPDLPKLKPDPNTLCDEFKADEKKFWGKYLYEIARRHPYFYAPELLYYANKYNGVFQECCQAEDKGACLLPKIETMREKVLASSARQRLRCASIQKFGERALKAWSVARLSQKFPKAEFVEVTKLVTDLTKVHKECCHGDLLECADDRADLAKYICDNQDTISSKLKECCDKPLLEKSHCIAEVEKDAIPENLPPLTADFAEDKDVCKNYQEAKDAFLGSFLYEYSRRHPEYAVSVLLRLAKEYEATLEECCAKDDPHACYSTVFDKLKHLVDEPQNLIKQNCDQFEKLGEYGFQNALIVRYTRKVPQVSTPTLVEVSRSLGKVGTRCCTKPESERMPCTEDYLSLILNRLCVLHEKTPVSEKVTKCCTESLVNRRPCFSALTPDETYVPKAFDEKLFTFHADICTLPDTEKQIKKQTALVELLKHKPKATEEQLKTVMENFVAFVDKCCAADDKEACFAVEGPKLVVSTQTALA

- complex binding with BSA (BSA; [3]): less than 5%
- % bound In BSA (BSA; [4]): (1.3% bound)
- Conc. (mM) In BSA after (BSA; [4]): 0.3185 mM
- % bound In BSA (BSA; [5]): (1.5% bound)
- Conc. (mM) In BSA after (BSA; [5]): 0.1568 mM
- % bound In BSA (BSA; [6]): (3.7% bound)
- Conc. (mM) In BSA after (BSA; [6]): 0.02 mM
- % bound In BSA (BSA; [7]): (1.9% bound)
- Conc. (mM) In BSA after (BSA; [7]): 0.3641 mM
- % bound In BSA (BSA; [8]): (3.4% bound)
- Conc. (mM) In BSA after (BSA; [8]): 0.1498 mM
- % bound In BSA (BSA; [9]): (2.2% bound)
- Conc. (mM) In BSA after (BSA; [9]): 0.02458 mM
- complex binding with human plasma (human plasma; [3]): less than 5%
- % bound In Plasma (human plasma; [10]): (2.2% bound)
- Conc. (mM) In Plasma after (human plasma; [10]): 0.3097 mM
- % bound In Plasma (human plasma; [11]): (1.8% bound)
- Conc. (mM) In Plasma after (human plasma; [11]): 0.1592 mM
- % bound In Plasma (human plasma; [12]): (4.7% bound)
- Conc. (mM) In Plasma after (human plasma; [12]): 0.02015 mM
- % bound In Plasma (human plasma; [13]): (2.6% bound)
- Conc. (mM) In Plasma after (human plasma; [13]): 0.3602 mM
- % bound In Plasma (human plasma; [14]): (2.2% bound)
- Conc. (mM) In Plasma after (human plasma; [14]): 0.1311 mM
- % bound In Plasma (human plasma; [15]): (3.9% bound)
- Conc. (mM) In Plasma after (human plasma; [15]): 0.01816 mM
- ratio of TSA/SA after DTPA challenge [2]: remained the same
- decomplexation in presence of competitive ligand DTPA [2]: No trace of any decomplexation
Compound: C[C@H]1CN(CC(=O)[O-])[C@@H](C)CN(CC(=O)[O-])[C@@H](C)CN(CC(=O)[O-])[C@@H](C)CN1CC(=O)[O-].[Gd+3] [[GdL1]^−]
- r1 4.5 w/v BSA (1.5 T) [1]: 4.1
- r1 Human Plasma (1.5 T) [1]: 3.9
- r1 Water (1.5 T) [1]: 3.4
- r1 Water (11.7 T) [1]: 2.8

- ratio of TSA/SA after DTPA challenge [2]: remained the same
- decomplexation in presence of competitive ligand DTPA [2]: No trace of any decomplexation
Compound: CC[C@H]1CN(CC(=O)[O-])[C@@H](CC)CN(CC(=O)[O-])[C@@H](CC)CN(CC(=O)[O-])[C@@H](CC)CN1CC(=O)[O-].[Gd+3] [[GdL2]^−]
- r1 4.5 w/v BSA (1.5 T) [1]: 3.6
- r1 Human Plasma (1.5 T) [1]: 2.9
- r1 Water (1.5 T) [1]: 2.6
- r1 Water (11.7 T) [1]: 3.1
